Consider one compound from EPA's ToxValDB 9.5 (doi:10.2903/j.efsa.2010.1783).

Molecules are shown by their SMILES. ≈ marks a conversion by molar mass, not a printed value.

The subject of one data set is Anas platyrhynchos. Conditions: acute; oral; unspecified; mortality.
The subject of the next data set is Colinus virginianus. Conditions: acute, oral, mortality.
A further data set concerns Coturnix japonica. The note with it: reproduction developmental; duration: 20 weeks.
The next data set deals with Daphnia magna. Conditions: acute; duration: 48 hours; mortality.
The next data set has as its system Oncorhynchus mykiss. The note with it: acute; duration: 96 hours; mortality.
Another data set concerns Oryctolagus sp. Conditions: subchronic; duration: 90 days; oral; hematological.
A further data set has as its system Rattus norvegicus. The note with it: acute; oral; mortality.
A further data set has as its system Tagia sp. The note with it: acute; duration: 14 days; mortality.

As a reminder, the NOAEL is the highest dose or exposure tested at which no adverse effect was seen. For `O=c1oc2ccccc2c(O)c1C(CC(O)c1ccc(-c2ccc(Br)cc2)cc1)c1ccccc1` (centres undefined) [Bromadiolone], the LD50 was 1290 mg/kg with Anas platyrhynchos; 8.3 mg/kg-day in the data set with Colinus virginianus (duration: 5 days, diet); 138 mg/kg in the data set on Colinus virginianus; < 0.84 mg/kg in the data set with Rattus norvegicus. In the data set with Coturnix japonica, this compound registered an NOEL of 0.011 mg/kg-day. For the same compound, the LC50 in the data set on Daphnia magna is 2 mg/L (≈ 3.79 µM); in the data set with Oncorhynchus mykiss, > 8 mg/L; with Tagia sp., > 4.74 mg/kg. The same compound gave an NOAEL in the data set with Oryctolagus sp. of 0.5 mg/kg-day.
